For one experiment, the target named is T1, Human PKMYT1 (Homo sapiens, UniProt Q99640).
T1 construct: Human PKMYT1 75-362 was cloned as a TEV cleavable 6xHis fusion; 6xHis (TEV cleavable) (cleaved yes); made in house; host or cells: bacterial cells
T1 sequence (Q99640 75-362): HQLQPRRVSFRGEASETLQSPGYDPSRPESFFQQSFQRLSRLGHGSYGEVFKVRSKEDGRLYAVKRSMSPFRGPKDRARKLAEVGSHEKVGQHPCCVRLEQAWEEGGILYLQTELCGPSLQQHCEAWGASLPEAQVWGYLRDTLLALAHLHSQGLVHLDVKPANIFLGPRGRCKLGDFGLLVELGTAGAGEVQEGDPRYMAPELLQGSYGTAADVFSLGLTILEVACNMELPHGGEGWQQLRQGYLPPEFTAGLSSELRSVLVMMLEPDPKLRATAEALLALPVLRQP
Description: PKMYT1 biochemical ADP-Glo enzymatic assay. The method in brief: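 Compounds were titrated over 10 points (3-fold steps), then 15 nM purified PKMYT1 kinase domain (aa 75-362) and 500 µM ATP were added in pH 7.5 HEPES buffer. After 60 min at 26 °C, remaining ATP was depleted and ADP converted to luminescence for IC50 fitting.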

The target in another experiment is T2, WEE1 (Homo sapiens, UniProt P30291).
T2 construct: purchased Thermo Fisher PR7373A
T2 sequence (P30291 whole entry): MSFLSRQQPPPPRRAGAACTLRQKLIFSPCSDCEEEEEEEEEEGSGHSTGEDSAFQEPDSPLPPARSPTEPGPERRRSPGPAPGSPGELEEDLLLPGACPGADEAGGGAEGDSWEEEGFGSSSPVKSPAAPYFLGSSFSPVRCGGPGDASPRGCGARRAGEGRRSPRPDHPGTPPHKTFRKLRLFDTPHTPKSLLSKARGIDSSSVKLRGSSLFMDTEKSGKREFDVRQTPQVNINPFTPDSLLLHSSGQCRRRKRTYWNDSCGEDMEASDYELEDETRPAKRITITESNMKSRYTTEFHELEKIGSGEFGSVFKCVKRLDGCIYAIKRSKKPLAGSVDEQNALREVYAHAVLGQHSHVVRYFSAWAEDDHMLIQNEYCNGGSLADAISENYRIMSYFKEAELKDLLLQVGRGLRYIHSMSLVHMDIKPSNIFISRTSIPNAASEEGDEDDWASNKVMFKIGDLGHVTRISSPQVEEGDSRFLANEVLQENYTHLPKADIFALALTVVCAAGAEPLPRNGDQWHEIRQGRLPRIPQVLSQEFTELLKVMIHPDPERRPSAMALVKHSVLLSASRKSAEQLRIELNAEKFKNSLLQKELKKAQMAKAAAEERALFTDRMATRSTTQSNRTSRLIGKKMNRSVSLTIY
Description: Selectivity versus WEE1 assay (ADP-Glo enzymatic assay). The class given is biochemical. Particulars: for IC50: ADP-Glo; for PKMYT1 vs. WEE1 selectivity: fold difference in selectivity for PKMYT1 over WEE1. The method in brief:
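Compounds were pre-dispensed, enzyme (15 nM final) was added in pH 7.5 HEPES buffer, and ATP ([…]) then started a 60 min incubation at 26° C. Afterwards ADP-Glo reagents were added in turn and luminescence was measured to derive IC50 values.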

Setting [1] is: PKMYT1 kinase domain 15 nM, ADP-Glo, banded values.
[2] abbreviates: ADP-Glo, 15 nM PKMYT1 kinase domain, 500 µM ATP, 60 minutes at 26° C., banded.
Where [3] appears, read: 15 nM WEE1, 60 minutes at 26° C., banded.
[4] abbreviates: banded, ">N" = at least in this band but could be higher.

With `Cc1ccc(O)c(C)c1NC(=O)c1cnc(Nc2cn(C)nc2C(F)(F)F)s1` [BAA-548, N-(3-hydroxy-2,6-dimethylphenyl)-2-((1-methyl-3-(trifluoromethyl)-1H-pyrazol-4-yl)amino)thiazole-5-carboxamide], the IC50 is 0.05 to 1 µM at Human PKMYT1 (setting [1]) and > 11 µM at WEE1 (WEE1 15 nM, banded values). Moreover, the “PKMYT1 vs. WEE1 selectivity” value on WEE1 (banded) is on record as “X (100-<1000 fold)”.

With `Cc1ccc(O)c(C)c1NC(=O)c1cnc(Nc2ccn([C@@H]3CCN(C(=O)C(C)(C)C)C3)n2)s1` [BAA-080, 2-[[1-[(3R)-1-(2.2-Dimethylpropanoyl)pyrrolidin-3-yl]pyrazol-3-yl]amino]-N-(3-hydroxy-2,6-dimethyl-phenyl)thiazole-5-carboxamide], the results for the IC50 against Human PKMYT1 (setting [2]) and on WEE1 (setting [3]) were 0.05 to 1 µM and > 11 µM, respectively. Besides, the “PKMYT1 vs. WEE1 selectivity” value at WEE1 (setting [4]) is given as “>X (100-<1000 fold)”.

For `Cc1cn(C(C)C(=O)N2CCN(C)CC2)nc1Nc1ncc(C(=O)Nc2c(C)ccc(O)c2C)s1` (stereo not drawn) [BAA-500, N-(3-hydroxy-2,6-dimethylphenyl)-2-((4-methyl-1-(1-(4-methylpiperazin-1-yl)-1-oxopropan-2-yl)-1H-pyrazol-3-yl)amino)thiazole-5-carboxamide], the IC50 against Human PKMYT1 (setting [1]) was < 0.05 µM; against WEE1 (WEE1 15 nM, banded values) it was > 11 µM. Also, at WEE1 (banded), the “PKMYT1 vs. WEE1 selectivity” value was “X (100-<1000 fold)”.

In the case of `Cc1nccc(Nc2ncc(C(=O)Nc3c(C)ccc(O)c3C)s2)n1` [BAA-434, N-(3-hydroxy-2,6-dimethylphenyl)-2-((2-methylpyrimidin-4-yl)amino)thiazole-5-carboxamide], the IC50 on Human PKMYT1 (setting [1]) was < 0.05 µM; at WEE1 (WEE1 15 nM, banded values), > 11 µM. On WEE1 (banded), the “PKMYT1 vs. WEE1 selectivity” value is reported as “Y (1000-5000 fold)”.

In the case of `Cc1ccc(O)c(C)c1NC(=O)c1cnc(Nc2ccn([C@H]3CCN(C(=O)OC(C)(C)C)C3)n2)s1` [BAA-042], the IC50 at Human PKMYT1 (setting [2]) is 0.05 to 1 µM; at WEE1 (setting [3]), > 11 µM. Moreover, on WEE1 (setting [4]), the “PKMYT1 vs. WEE1 selectivity” value is reported as “>X (100-<1000 fold)”.

For `Cc1ccc(O)c(C)c1NC(=O)c1cnc(Nc2ncc(C(F)(F)F)cn2)s1` [BAA-279, N-(3-hydroxy-2,6-dimethylphenyl)-2-((5-(trifluoromethyl)pyrimidin-2-yl)amino)thiazole-5-carboxamide], the IC50 is < 0.05 µM at Human PKMYT1 (setting [2]) and > 11 µM on WEE1 (setting [3]). At WEE1 (setting [4]), the “PKMYT1 vs. WEE1 selectivity” value is “Y (1000-5000 fold)”.

Regarding `Cc1ccc(O)c(Br)c1NC(=O)c1cnc(Nc2ccn(CC(=O)N3CCCC3)n2)s1` [BAA-476], the IC50 is < 0.05 µM at Human PKMYT1 (setting [1]) and 1 to 11 µM against WEE1 (WEE1 15 nM, banded values). For the same compound, the “PKMYT1 vs. WEE1 selectivity” value on WEE1 (banded) is “X (100-<1000 fold)”.

`Cc1ccc(O)c(C)c1NC(=O)c1cnc(NCc2ccccc2C2CC2)s1` [BAA-356, 2-((2-cyclopropylbenzyl)amino)-N-(3-hydroxy-2,6-dimethylphenyl)thiazole-5-carboxamide]: the IC50 on Human PKMYT1 (setting [2]) was 1 to 11 µM; on WEE1 (setting [3]) it was > 11 µM. In addition, the “PKMYT1 vs. WEE1 selectivity” value on WEE1 (setting [4]) is given as “W (10-<100 fold)”.

Turning to `Cc1ccc(O)c(C)c1NC(=O)c1cnc(Nc2ccn(CC(=O)N3CC4(CNC4)C3)n2)s1` [BAA-200, 2-[[1-[2-(2,6-Diazaspiro[3.3]heptan-2-yl)-2-oxo-ethyl]pyrazol-3-yl]amino]-N-(3-hydroxy-2,6-dimethyl-phenyl)thiazole-5-carboxamide 2,2,2-trifluoroacetate], the IC50 against Human PKMYT1 (setting [2]) was < 0.05 µM; on WEE1 (setting [3]) it was > 11 µM. Besides, at WEE1 (setting [4]), the “PKMYT1 vs. WEE1 selectivity” value is on record as “X (100-<1000 fold)”.

For the compound `Cc1ccc(O)c(C)c1NC(=O)c1cnc(Nc2ccc(C(F)(F)F)cn2)s1` [BAA-280, N-(3-hydroxy-2,6-dimethylphenyl)-2-((5-(trifluoromethyl)pyridin-2-yl)amino)thiazole-5-carboxamide], the IC50 at Human PKMYT1 (setting [2]) is 0.05 to 1 µM; against WEE1 (setting [3]) it was > 11 µM. The “PKMYT1 vs. WEE1 selectivity” value on WEE1 (setting [4]) is “Y (1000-5000 fold)”.

For the compound `Cc1ccc(O)c(C)c1NC(=O)c1cnc(Nc2ccn(C3CCCC3)n2)s1` [BAA-014, 2-[(1-cyclopentylpyrazol-3-yl)amino]-N-(3-hydroxy-2,6-dimethyl-phenyl)thiazole-5-carboxamide], the IC50 on Human PKMYT1 (setting [2]) is < 0.05 µM; against WEE1 (setting [3]), 1 to 11 µM. For the same compound, at WEE1 (setting [4]), the “PKMYT1 vs. WEE1 selectivity” value is “W (10-<100 fold)”.

With `COc1ccc(CNc2ncc(C(=O)Nc3c(C)ccc(O)c3C)s2)cc1` [BAA-352, N-(3-hydroxy-2,6-dimethylphenyl)-2-((4-methoxybenzyl)amino)thiazole-5-carboxamide], the IC50 was 0.05 to 1 µM on Human PKMYT1 (setting [2]) and > 11 µM against WEE1 (setting [3]). For the same compound, the “PKMYT1 vs. WEE1 selectivity” value on WEE1 (setting [4]) is listed as “X (100-<1000 fold)”.

As for `Cc1ccc(O)c(C)c1NC(=O)c1cnc(Nc2nc(Cl)ccc2C(F)(F)F)s1` [BAA-405, 2-((6-chloro-3-(trifluoromethyl)pyridin-2-yl)amino)-N-(3-hydroxy-2,6-dimethylphenyl)thiazole-5-carboxamide], the IC50 on Human PKMYT1 (setting [1]) was 0.05 to 1 µM; against WEE1 (WEE1 15 nM, banded values), > 11 µM. The “PKMYT1 vs. WEE1 selectivity” value at WEE1 (banded) is “X (100-<1000 fold)”.

For the compound `Cc1ccc(O)c(C)c1NC(=O)c1cnc(Nc2ccn(C(C)C)n2)s1` [BAA-008, N-(3-hydroxy-2,6-dimethyl-phenyl)-2-[(1-isopropylpyrazol-3-yl)amino]thiazole-5-carboxamide], the IC50 on Human PKMYT1 (setting [2]) lay in the range of 0.05 to 1 µM; against WEE1 (setting [3]) it was 1 to 11 µM. Moreover, the “PKMYT1 vs. WEE1 selectivity” value on WEE1 (setting [4]) is “X (100-<1000 fold)”.

As to `Cc1ccc(O)c(C)c1NC(=O)c1cnc(Nc2ccn(CCCN3CCOCC3)n2)s1` [BAA-101], the figures for the IC50 at Human PKMYT1 (setting [2]) and at WEE1 (setting [3]) were 0.05 to 1 µM and > 11 µM, respectively. In addition, the “PKMYT1 vs. WEE1 selectivity” value at WEE1 (setting [4]) was “>X (100-<1000 fold)”.

Consider `Cc1ccc(O)c(C)c1NC(=O)c1cnc(Nc2nccn2C)s1` [BAA-552, N-(3-hydroxy-2,6-dimethylphenyl)-2-((1-methyl-1H-imidazol-2-yl)amino)thiazole-5-carboxamide], for which the IC50 against Human PKMYT1 (setting [1]) was 0.05 to 1 µM; on WEE1 (WEE1 15 nM, banded values), > 11 µM. Besides, the “PKMYT1 vs. WEE1 selectivity” value on WEE1 (banded) was “X (100-<1000 fold)”.

With `Cc1ccc(O)c(C)c1NC(=O)c1cnc(Nc2ccn(CC(=O)NCCN3CCOCC3)n2)s1` [BAA-035], the IC50 was 0.05 to 1 µM against Human PKMYT1 (setting [2]) and > 11 µM against WEE1 (setting [3]). For the same compound, the “PKMYT1 vs. WEE1 selectivity” value at WEE1 (setting [4]) was “X (100-<1000 fold)”.

Regarding `Cc1ccc(O)c(C)c1NC(=O)c1cnc(Nc2nc(C)c(C)s2)s1` [BAA-266, 2-((4,5-dimethylthiazol-2-yl)amino)-N-(3-hydroxy-2,6-dimethylphenyl)thiazole-5-carboxamide], the values for the IC50 at Human PKMYT1 (setting [2]) and on WEE1 (setting [3]) were 0.05 to 1 µM and > 11 µM, respectively. Also, on WEE1 (setting [4]), the “PKMYT1 vs. WEE1 selectivity” value was “X (100-<1000 fold)”.

On to `Cc1ccc(O)c(C)c1NC(=O)c1cnc(Nc2ccn(CC(=O)NC(C)C)n2)s1` [BAA-189, N-(3-hydroxy-2,6-dimethyl-phenyl)-2-[[1-[2-(isopropylamino)-2-oxo-ethyl]pyrazol-3-yl]amino]thiazole-5-carboxamide], for which the figures for the IC50 on Human PKMYT1 (setting [2]) and on WEE1 (setting [3]) were 0.05 to 1 µM and > 11 µM, respectively. The “PKMYT1 vs. WEE1 selectivity” value at WEE1 (setting [4]) was “Y (1000-5000 fold)”.

Turning to `Cc1ccc(O)c(C)c1NC(=O)c1cnc(Nc2cc(C(=O)N3CCOCC3)n(C)n2)s1` [BAA-537, N-(3-hydroxy-2,6-dimethylphenyl)-2-((1-methyl-5-(morpholine-4-carbonyl)-1H-pyrazol-3-yl)amino)thiazole-5-carboxamide], the IC50 is 0.05 to 1 µM at Human PKMYT1 (setting [1]) and 1 to 11 µM against WEE1 (WEE1 15 nM, banded values). Besides, the “PKMYT1 vs. WEE1 selectivity” value at WEE1 (banded) is listed as “W (10-<100 fold)”.

Take `Cc1ccc(O)c(Br)c1NC(=O)c1cnc(Nc2ccn(C)n2)s1` [BAA-468, N-(2-bromo-3-hydroxy-6-methyl-phenyl)-2-[(1-methylpyrazol-3-yl)amino]thiazole-5-carboxamide]: the IC50 is < 0.05 µM against Human PKMYT1 (setting [1]) and 1 to 11 µM on WEE1 (WEE1 15 nM, banded values). For the same compound, the “PKMYT1 vs. WEE1 selectivity” value on WEE1 (banded) is “X (100-<1000 fold)”.

Take `Cc1ccc(O)c(C)c1NC(=O)c1cnc(Nc2nn(C)c3c2CCC3)s1` [BAA-247, N-(3-hydroxy-2,6-dimethylphenyl)-2-((1-methyl-1,4,5,6-tetrahydrocyclopenta[c]pyrazol-3-yl)amino)thiazole-5-carboxamide]: the IC50 at Human PKMYT1 (setting [2]) is 0.05 to 1 µM; against WEE1 (setting [3]), > 11 µM. Moreover, the “PKMYT1 vs. WEE1 selectivity” value on WEE1 (setting [4]) is given as “Y (1000-5000 fold)”.

With `Cc1ccc(O)c(C)c1NC(=O)c1cnc(Nc2ccn(C)n2)s1` [BAA-004, N-(3-hydroxy-2,6-dimethyl-phenyl)-2-[(1-methylpyrazol-3-yl)amino]thiazole-5-carboxamide], the IC50 against Human PKMYT1 (setting [2]) was 0.05 to 1 µM; against Human PKMYT1 (PKMYT1 biochemical ADP-Glo enzymatic assay, Comparison Data 2) it was 0.055 µM; at WEE1 (setting [3]) it was 1 to 11 µM. At Human PKMYT1 (vs REF-003), the “improvement in PKMYT1 IC50 as compared to REF-003” value is listed as 987 fold. In addition, the “improvement in PKMYT1 IC50 as compared to REF-004” value on Human PKMYT1 (vs REF-004) is > 1800 fold. Besides, the “PKMYT1 vs. WEE1 selectivity” value on WEE1 (setting [4]) was “X (100-<1000 fold)”.

These data come from patent US20260297042A1, “BIARYLAMIDE DERIVATIVES AND THEIR USE AS PKMYT1 INHIBITORS” (CANCER RESEARCH TECHNOLOGY LIMITED, priority 2023, published 2026).
